Reference: patent US20250186600A1, “EXCIPIENT COMPOUNDS FOR PROTEIN FORMULATIONS” (Comera Life Sciences, Inc., priority 2020, published 2025)
Structures can show the parent of a compound that is named as a salt.

Experiments:
ustekinumab [1] = test: Stabilization at low pH, Sypro orange fluorescence (Example 45); conditions: excipient 5 mg/mL, ustekinumab 1 mg/mL, glycine acidification buffer pH 2.6, Sypro orange fluorescence
ustekinumab [2] = test: Thermal stability at 65° C., monomer by SE-HPLC (Example 46); format: physicochemical; conditions: excipient 5 mg/mL, ustekinumab 1 mg/mL, 20 mM histidine pH 6.0, incubated at 65° C.
Excerpt: Therapeutic proteins are frequently subjected to fluctuations in temperatures which may lead to changes in tertiary and secondary structural elements. This can lead to aggregation of the protein and decrease the amount of active native protein. […] All excipients used in this Example, listed in Table 47 below, were of the highest purity, and were obtained from Sigma Aldrich (St. Louis, MO) or Cayman Chemical (Ann Arbor, MI).

ustekinumab [3] = test: Urea denaturation, Sypro orange fluorescence (Example 44); format: physicochemical; conditions: excipient 5 mg/mL, ustekinumab 1 mg/mL, 6M urea, 20 mM histidine pH 6.0, Sypro orange fluorescence
ustekinumab [4] = test: Thermal stability at 65 deg C., increase in percent monomer by SE-HPLC (Example 55); format: physicochemical; conditions: excipient 5 mg/mL, ustekinumab 1 mg/mL, 20 mM Histidine pH 6.0, 65 deg C., 120 min
Excerpt: Therapeutic proteins are frequently subjected to fluctuations in temperatures, which may lead to changes in their tertiary and secondary structural elements. This leads to aggregation of the protein and a decrease in the active native species.

ustekinumab-FITC [5] = test: Thermal stability of model ADC at 65° C. by SE-HPLC (Example 56); conditions: excipient 5 mg/mL, ustekinumab-FITC 1 mg/mL, 20 mM Histidine pH 6.0, 65° C.
omalizumab [6] = test: Freeze/thaw stress (6 cycles), monomer by SE-HPLC (Example 57); format: physicochemical; conditions: excipient 100 mM, omalizumab 2 mg/mL, 20 mM Histidine pH 6.0, freeze (−80° C.)/thaw
Experimental: Therapeutic proteins are frequently kept at low temperatures to improve their kinetic stability and minimize structural perturbations that could lead to the aggregation of the protein and a decrease in the active native species. In certain cases, this might be done by freezing the formulation until use. However, the low temperatures, concentration gradients, and ice formation during repeated freezing and thawing can stress the protein. […] The formulations were then aliquoted into 0.5 mL cryovials and frozen at −80° C. for 120 min. The samples were then thawed using a water bath kept at room temperature.

ustekinumab [7] = test: Accelerated aging at 40° C. for 4 weeks, monomer by SE-HPLC (Example 58); format: physicochemical; conditions: excipient 100 mM, ustekinumab 2 mg/mL, 20 mM Histidine pH 6.0, 40° C. for 4 weeks
Experimental: 1 mL of each sample was aliquoted into 2 mL glass vials (West Pharmaceutical services, PA) and incubated at 40° C. for 4 weeks. The aliquots were withdrawn after 0, 1, 2, 3, and 4 weeks.

infliximab [8] = test: Thermal degradation assay at 55° C., normalized monomer loss rate by HP-SEC (Example 51); format: physicochemical; conditions: infliximab about 2 mg/mL, 20 mM phosphate pH 7, 55° C.
Experimental: ® infliximab was obtained from the Clinigen Group and reconstituted according to the instructions in the Janssen package insert, resulting in a 10 mg/mL infliximab solution in 5 mM phosphate buffer, pH about 7, with 50 mg/mL sucrose and 0.05 mg/mL polysorbate 80. The reconstituted drug product was then combined 1:1 by volume with 50 mM sodium acetate buffer at pH 5. The resulting solution was then injected onto a small preparative scale cation exchange column (GE Healthcare, Chicago, IL). After the infliximab was loaded onto the column, the column was washed with 10 column volumes of 50 mM sodium acetate buffer, pH 5. The infliximab was then eluted from the column with five column volumes of a 250 mM sodium chloride, 50 mM sodium acetate buffer at pH 5. […] Stock solutions of either 4 or 8 mg/mL infliximab in 20 mM phosphate buffer at pH 7 were then used in subsequent tests.
All excipients used in this Example, listed in Table 52 below, were of the highest purity, and were obtained from Sigma Aldrich (St. Louis, MO) or Cayman Chemical (Ann Arbor, MI). The stock infliximab solutions were mixed with stock excipient solutions containing the excipients listed in Table 52 formulated in 20 mM phosphate buffer, pH 7 to achieve a final infliximab concentration of about 2 mg/mL in each sample. The samples containing the infliximab solutions and the stock excipient solutions were then aliquoted into five 100 μL aliquots in PCR tubes. […] These stressed samples were then analyzed for monomer content by high performance size exclusion chromatography (HP-SEC) using an Agilent 1100 series HPLC equipped with a diode array detector monitoring absorbance at 280 nm. […] For each sample, the monomer peak area was divided by the monomer peak area obtained from an identical but unstressed sample to obtain the percent monomer remaining after exposure to thermal stress. The remaining monomer as a percentage of the unstressed sample was then plotted as a function of incubation time and the absolute value of the slope of a linear fit to the data was recorded as the monomer loss rate.

ustekinumab-FITC [9] = test: Mechanical shear stability of ustekinumab-FITC, particle radius by DLS (Example 60); conditions: excipient 8.3 mg/mL; ustekinumab-FITC 1 mg/mL, 20 mM histidine pH 6, 300 rpm 72 h 23° C.
omalizumab [10] = test: Mechanical shear stress (agitation 72 h), absorbance at 350 nm (Example 47); format: physicochemical; conditions: excipient 0.5 mg/mL, omalizumab 2 mg/mL, 22° C., 72 h agitation at 300 rpm
Experimental: Excipients that offer protection against shear stresses were identified by agitating therapeutic protein solutions in the presence of the test excipients (listed in Table 48 below) and observing any change in the number of aggregated particles. […] The samples were transferred to a 0.5 mL cryogenic vial (ThermoFisher, Waltham MA) and secured to an orbital shaker. They were then incubated at 22° C. for 72 h with agitation set at 300 rpm. At the end of incubation period, 100 μL of each sample was transferred to 96-well plates, and the absorbance was measured at 350 nm. Any increase in aggregation was measured by observing the changes in light scattering at 350 nm, and comparing those changes to the light scattering at 350 nm of a control formulation (prepared identically to the test samples but without the addition of the excipient). Excipients that are protective in nature were identified by their ability to slow the rate of aggregation and decrease the A350 absorbance value after the agitation step.

[11] = Table 13; versus 79.7 cP with no excipient
[12] = Caffeine solubility testing with co-solutes at ambient temperature (Examples 31-32); conditions: with co-solute
Experimental: Prepared solutions were used either neat or diluted with deionized water.
A small magnetic stir bar was added to the vial, and the solution was allowed to mix vigorously on a stir plate for about 10 minutes.

omalizumab [13] = test: Freeze-thaw stability, light scattering at 350 nm (Example 48); format: physicochemical; conditions: excipient 5 mg/mL, omalizumab 5 mg/mL, 20 mM histidine pH 6.0, at least 5 freeze (−80° C.)/thaw cycles
[14] = system: bovine gamma globulin (BGG); test: Normalized viscosity of BGG with caffeine and a secondary excipient (Example 40); format: physicochemical; conditions: Excipient A caffeine 15 mg/mL + Excipient B 14 mg/mL; BGG about 280 mg/mL, 20 mM histidine pH 6, 25° C.
infliximab [15] = test: Thermal stability at 50° C. with caffeine and excipients, SE-HPLC (Example 63); format: physicochemical; conditions: excipient 0.5 M, caffeine 50 mM, infliximab 10 mg/mL, 5 mM phosphate pH 7.5, 50° C., 180 min
Experimental: Therapeutic proteins stress leads to aggregation of the protein and a decrease in the active native species. […] The aliquots were withdrawn at 0 min, 90 min and 180 min. […] Diode array detector.

## OC[C@H]1O[C@@](CO)(O[C@H]2O[C@H](CO)[C@@H](O)[C@H](O)[C@H]2O)[C@@H](O[C@H]2O[C@H](CO)[C@@H](O)[C@H](O)[C@H]2O)[C@@H]1O [Melzitose]
Ustekinumab [1]
  % change in stability: 2.0%
Ustekinumab [2]
  Monomer Fraction % change from control: 2.0%
Ustekinumab [3]
  % increased stability: 4.7%

## O=C(CO)[C@@H](O)[C@H](O)[C@H](O)[C@H](O)CO [Sedoheptulose]
Ustekinumab [1]
  % change in stability: 2.6%
Ustekinumab [2]
  Monomer Fraction % change from control: 3.4%
Ustekinumab [4]
  % increase in monomer content vs. control: 4.1%
ustekinumab-FITC [5]
  % increase in monomer content vs. control: 37.68%
Omalizumab [6]
  % increase in monomer content vs. control: 11.35%
Ustekinumab [7]
  % increase in monomer content vs. control: 7.7%
Ustekinumab [3]
  % increased stability: 3.7%

## OC[C@H]1O[C@H](O[C@H]2O[C@H](CO)[C@@H](O)[C@H](O)[C@H]2O)[C@H](O)[C@@H](O)[C@@H]1O [trehalose]
Ustekinumab [1]
  % change in stability: 2.5%
Omalizumab [6]
  % increase in monomer content vs. control: 77.68%
Infliximab [8]; excipient 200 mM
  Monomer loss rate: 0.0737 % mon/min
  Normalized monomer loss rate: 0.460
Infliximab [8]; excipient 250 mM
  Monomer loss rate: 0.0781 % mon/min
  Normalized monomer loss rate: 0.488

## C=C1C[C@@]23CC[C@H]4[C@@](C)(CCC[C@@]4(C)C(=O)O[C@@H]4O[C@H](CO)[C@@H](O)[C@H](O)[C@H]4O)[C@@H]2CC[C@]1(O[C@@H]1O[C@H](CO)[C@@H](O)[C@H](O)[C@H]1O)C3 [Rubusoside]
ustekinumab-FITC [9]
  DLS particle radius (nm) after shear test: 6.2 nm

## C[C@]1(OC(=O)/C=C/c2ccccc2)C[C@@H](O)[C@]2(O)C=CO[C@@H](O[C@@H]3O[C@H](CO)[C@@H](O)[C@H](O)[C@H]3O)[C@@H]21 [Harpagoside]
Omalizumab [10]
  % decrease of A350 signal vs. control: 69.0%

## O=C(O)CC(O)(CC(=O)O)C(=O)O
[11]
  Viscosity Reduction (%): 6.0%

## Nc1ncnc2c1ncn2[C@@H]1O[C@H](CO)[C@@H](O)[C@H]1O [Adenosine]
Ustekinumab [1]
  % change in stability: 32.2%
Ustekinumab [2]
  Monomer Fraction % change from control: 8.4%
Ustekinumab [3]
  % increased stability: 53.6%

## O=C[C@@H](O)[C@H](O)[C@H](O)[C@H](O)CO [Altrose]
Ustekinumab [4]
  % increase in monomer content vs. control: 2.8%
ustekinumab-FITC [5]
  % increase in monomer content vs. control: 63.41%

## O=P([O-])([O-])[O-].[K+].[K+].[K+] [Potassium phosphate, potassium phosphate tribasic]
[11]
  Viscosity Reduction (%): 9.3%

## Cl.NCCc1ccc(O)cc1 [Tyramine HCl]
[12]
  dissolution of caffeine relative to the reported caffeine solubility limit: at least about four times

## OC[C@@H](O)C(O)[C@H](O)CO [Arabitol]
Ustekinumab [1]
  % change in stability: 3.4%
Omalizumab [13]
  % reduction in light scattering at 350 nm vs. control: 17.8%
Ustekinumab [2]
  Monomer Fraction % change from control: 6.0%
Ustekinumab [3]
  % increased stability: 2.7%

## O=S(=O)([O-])[O-].[Na+].[Na+] [Sodium sulfate]
[11]
  Viscosity Reduction (%): 5.8%
[14]
  Normalized Viscosity: 0.78

## CC(=O)N[C@@H]1C(O)O[C@H](CO)[C@@H](O)[C@@H]1O (stereo partly drawn) [N-Acetyl Mannosamine]
Ustekinumab [4]
  % increase in monomer content vs. control: 3.1%
ustekinumab-FITC [5]
  % increase in monomer content vs. control: 23.49%
Ustekinumab [7]
  % increase in monomer content vs. control: 4.4%

## O=P(O)(O)C(O)(Cc1cccnc1)P(=O)(O)O [Risedronate]
Infliximab [15]
  % change compared to control: 46.2%

## O=C1NS(=O)(=O)c2ccccc21.[Na] [Saccharin, Na, saccharin sodium salt]
[12]
  dissolution of caffeine relative to the reported caffeine solubility limit: at least about four times

## O=C(CO)[C@@H](O[C@H]1O[C@H](CO)[C@@H](O)[C@H](O)[C@H]1O)[C@H](O)[C@H](O)CO [Turanose]
Ustekinumab [4]
  % increase in monomer content vs. control: 5.8%
ustekinumab-FITC [5]
  % increase in monomer content vs. control: 48.06%
Omalizumab [6]
  % increase in monomer content vs. control: 75.99%
Ustekinumab [7]
  % increase in monomer content vs. control: 8.3%

## CC(=O)N[C@@H]1C(O)O[C@H](CO)[C@@H](O)[C@@H]1O (stereo partly drawn) [N-acetyl mannosamine]
Omalizumab [6]
  % increase in monomer content vs. control: 6.63%

## O=C(O)[C@@H]1C[C@@H](O)CN1 [Hydroxyproline]
Infliximab [15]
  % change compared to control: 67.3%

## C[C@H](CC[C@@H](O[C@@H]1O[C@H](CO[C@@H]2O[C@H](CO)[C@@H](O)[C@H](O)[C@H]2O)[C@@H](O)[C@H](O)[C@H]1O[C@@H]1O[C@H](CO)[C@@H](O)[C@H](O)[C@H]1O)C(C)(C)O)[C@H]1CC[C@@]2(C)[C@@H]3CC=C4[C@@H](CC[C@H](O[C@@H]5O[C@H](CO[C@@H]6O[C@H](CO)[C@@H](O)[C@H](O)[C@H]6O)[C@@H](O)[C@H](O)[C@H]5O)C4(C)C)[C@]3(C)[C@H](O)C[C@]12C [Mogroside V]
Omalizumab [10]
  % decrease of A350 signal vs. control: 68.2%

## O=C1O[C@H]([C@@H](O)CO)C(O)=C1O[C@H]1O[C@H](CO)[C@@H](O)[C@H](O)[C@H]1O [Ascorbyl glucoside]
Infliximab [15]
  % change compared to control: 45.8%

## O=C1O[C@@H]([C@H](O)CO)[C@@H](O)[C@H]1O [Gulonolactone]
Ustekinumab [4]
  % increase in monomer content vs. control: 2.6%
ustekinumab-FITC [5]
  % increase in monomer content vs. control: 79.95%
Omalizumab [6]
  % increase in monomer content vs. control: 10.02%

## OC[C@H]1O[C@H](O[C@H]2[C@H](O)[C@@H](O)C(O)O[C@@H]2CO)[C@H](O)[C@@H](O)[C@@H]1O (mixture of isomers) [Maltose]
Infliximab [15]
  % change compared to control: 9.65%

## O[C@H]1[C@H](O)[C@@H](O)[C@H](O)[C@@H](O)[C@H]1O [Inositol]
Infliximab [15]
  % change compared to control: 58.9%

## CCN(CC)CCOC(=O)c1ccc(N)cc1 [Procaine HCl, reference compound]
[12]
  dissolution of caffeine relative to the reported caffeine solubility limit: at least about four times
